According to ChEMBL document CHEMBL3351452, “Chemical synthesis, cytotoxicity, selectivity and bioavailability of 5α-androstane-3α,17β-diol derivatives” (Bioorg Med Chem, 2014):

Assays:
[1] = Plasma concentration in Sprague-Dawley rat at 2.3 mg/kg, sc measured at 3 hrs by LC/MS/MS analysis; format: ADME, organism-based; set-up: dose 2.3 mg/kg, route subcutaneous
MCF7 = test: Antiproliferative activity against human MCF7 cells assessed as reduction in cell growth after 24 hrs by MTS assay; format: functional, cell-based; details: MCF7, 24 h
[2] = Cytotoxicity against human peripheral blood lymphocytes assessed as assessed as CD3+/CD8 T cells population at 10 uM after 5 days by flow cytometry analysis (reference value: 15.2 %); format: cell-based; details: lymphocyte, 120 h
[3] = Cytotoxicity against human peripheral blood lymphocytes assessed as assessed as CD3+ T cells population at 5 uM after 5 days by flow cytometry analysis (reference value: 73.8%); format: cell-based; details: lymphocyte, 120 h
[4] = Cytotoxicity against human peripheral blood lymphocytes assessed as assessed as CD19+ B cells population at 50 uM after 5 days by flow cytometry analysis (reference value: 2%); format: cell-based; details: lymphocyte, 120 h
[5] = Cytotoxicity against mouse WEHI13 cells assessed as cell proliferation after 48 hrs by MTT assay; format: cell-based; details: WEHI13, 48 h
[6] = Cytotoxicity against human peripheral blood lymphocytes assessed as assessed as CD3+/CD4+ T cells population at 1 uM after 5 days by flow cytometry analysis (reference value: 41.4%); format: cell-based; details: lymphocyte, 120 h
[7] = Cytotoxicity against human peripheral blood lymphocytes assessed as assessed as CD3+/CD4+ T cells population at 0.1 uM after 5 days by flow cytometry analysis (reference value: 41.4%); format: cell-based; details: lymphocyte, 120 h
[8] = Cytotoxicity against human peripheral blood lymphocytes assessed as assessed as CD19+ B cells population at 30 uM after 5 days by flow cytometry analysis (reference value: 2%); format: cell-based; details: lymphocyte, 120 h
[9] = Cytotoxicity against human peripheral blood lymphocytes assessed as assessed as CD3+/CD4+ T cells population at 50 uM after 5 days by flow cytometry analysis (reference value: 41.4%); format: cell-based; details: lymphocyte, 120 h
[10] = Cytotoxicity against human peripheral blood lymphocytes assessed as assessed as CD4+/CD8+ […] ratio at 10 uM after 5 days by flow cytometry analysis (reference value: 2.7 %); format: cell-based; details: lymphocyte, 120 h
[11] = Cytotoxicity against human peripheral blood lymphocytes assessed as assessed as CD3+/CD8 T cells population at 1 uM after 5 days by flow cytometry analysis (reference value: 15.2%); format: cell-based; details: lymphocyte, 120 h
T47D = test: Antiproliferative activity against human T47D cells assessed as reduction in cell growth after 24 hrs by MTS assay; format: functional, cell-based
[12] = Cytotoxicity against human peripheral blood lymphocytes assessed as assessed as CD3+ T cells population at 0.1 uM after 5 days by flow cytometry analysis (reference value: 73.8%); format: cell-based; details: lymphocyte, 120 h
[13] = Cytotoxicity against human peripheral blood lymphocytes assessed as assessed as CD4+/CD8+ […] ratio at 30 uM after 5 days by flow cytometry analysis (reference value: 2.7%); format: cell-based; details: lymphocyte, 120 h
[14] = Plasma concentration in Sprague-Dawley rat at 2.3 mg/kg, sc measured at 12 hrs by LC/MS/MS analysis; format: ADME, organism-based; set-up: dose 2.3 mg/kg, route subcutaneous
[15] = Cytotoxicity against human peripheral blood lymphocytes assessed as assessed as CD19+ B cells population at 1 uM after 5 days by flow cytometry analysis (reference value: 2%); format: cell-based; details: lymphocyte, 120 h
[16] = Cytotoxicity against human peripheral blood lymphocytes assessed as assessed as CD3+/CD8 T cells population at 50 uM after 5 days by flow cytometry analysis (reference value: 15.2 %); format: cell-based; details: lymphocyte, 120 h
Cytochrome P450 2D6 = Cytochrome P450 2D6 (Homo sapiens, UniProt P10635); test: Inhibition of CYP2D6 (unknown origin) using AMMC by fluorescence assay; format: ADME
Cytochrome P450 2D6, sequence (P10635 whole entry): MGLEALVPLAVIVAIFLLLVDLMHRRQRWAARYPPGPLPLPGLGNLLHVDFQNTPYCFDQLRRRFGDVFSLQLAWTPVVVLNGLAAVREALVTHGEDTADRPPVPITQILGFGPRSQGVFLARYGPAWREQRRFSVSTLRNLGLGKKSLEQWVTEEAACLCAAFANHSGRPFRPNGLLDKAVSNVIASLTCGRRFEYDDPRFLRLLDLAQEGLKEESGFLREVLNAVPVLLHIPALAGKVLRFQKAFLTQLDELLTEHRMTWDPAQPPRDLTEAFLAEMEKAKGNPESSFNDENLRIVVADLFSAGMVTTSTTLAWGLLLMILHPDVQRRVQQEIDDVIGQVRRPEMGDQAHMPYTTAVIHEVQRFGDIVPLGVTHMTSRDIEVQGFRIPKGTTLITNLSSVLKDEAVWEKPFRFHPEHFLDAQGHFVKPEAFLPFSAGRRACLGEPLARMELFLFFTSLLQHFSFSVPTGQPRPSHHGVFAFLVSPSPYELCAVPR

[17] = Cytotoxicity against human peripheral blood lymphocytes assessed as assessed as CD3+/CD4+ T cells population at 10 uM after 5 days by flow cytometry analysis (reference value: 41.4 %); format: cell-based; details: lymphocyte, 120 h
[18] = Cytotoxicity against human peripheral blood lymphocytes assessed as assessed as CD4+/CD8+ […] ratio at 1 uM after 5 days by flow cytometry analysis (reference value: 2.7%); format: cell-based; details: lymphocyte, 120 h
[19] = Cytotoxicity against human peripheral blood lymphocytes assessed as assessed as CD3+ T cells population at 50 uM after 5 days by flow cytometry analysis (reference value: 73.8%); format: cell-based; details: lymphocyte, 120 h
[20] = Cytotoxicity against human peripheral blood lymphocytes assessed as assessed as CD19+ B cells population at 5 uM after 5 days by flow cytometry analysis (reference value: 2%); format: cell-based; details: lymphocyte, 120 h
[21] = Cytotoxicity against human peripheral blood lymphocytes assessed as assessed as CD3+/CD8 T cells population at 5 uM after 5 days by flow cytometry analysis (reference value: 15.2 %); format: cell-based; details: lymphocyte, 120 h
[22] = Cytotoxicity against human peripheral blood lymphocytes assessed as assessed as CD19+ B cells population at 10 uM after 5 days by flow cytometry analysis (reference value: 2%); format: cell-based; details: lymphocyte, 120 h
HL-60 = test: Antiproliferative activity against human HL-60 cells assessed as reduction in cell growth after 24 hrs by MTS assay; format: functional, cell-based; details: HL-60, 24 h
[23] = Cytotoxicity against human peripheral blood lymphocytes assessed as assessed as CD4+/CD8+ […] ratio at 0.1 uM after 5 days by flow cytometry analysis (reference value: 2.7%); format: cell-based; details: lymphocyte, 120 h
[24] = Cytotoxicity against human peripheral blood lymphocytes assessed as assessed as CD3+ T cells population at 1 uM after 5 days by flow cytometry analysis (reference value: 73.8%); format: cell-based; details: lymphocyte, 120 h
[25] = Cytotoxicity against human peripheral blood lymphocytes assessed as assessed as CD3+ T cells population at 30 uM after 5 days by flow cytometry analysis (reference value: 73.8%); format: cell-based; details: lymphocyte, 120 h
[26] = Cytotoxicity against human peripheral blood lymphocytes assessed as assessed as CD3+/CD8 T cells population at 0.1 uM after 5 days by flow cytometry analysis (reference value: 15.2 %); format: cell-based; details: lymphocyte, 120 h
[27] = Cytotoxicity against human peripheral blood lymphocytes assessed as assessed as CD19+ B cells population at 0.1 uM after 5 days by flow cytometry analysis (reference value: 2%); format: cell-based; details: lymphocyte, 120 h
[28] = Cytotoxicity against human peripheral blood lymphocytes assessed as assessed as CD3+/CD8 T cells population at 30 uM after 5 days by flow cytometry analysis (reference value: 15.2 %); format: cell-based; details: lymphocyte, 120 h
Cytochrome P450 3A4 = Cytochrome P450 3A4 (Homo sapiens, UniProt P08684); test: Inhibition of CYP3A4 (unknown origin) using AMMC by fluorescence assay; format: ADME
Cytochrome P450 3A4, sequence (P08684 whole entry): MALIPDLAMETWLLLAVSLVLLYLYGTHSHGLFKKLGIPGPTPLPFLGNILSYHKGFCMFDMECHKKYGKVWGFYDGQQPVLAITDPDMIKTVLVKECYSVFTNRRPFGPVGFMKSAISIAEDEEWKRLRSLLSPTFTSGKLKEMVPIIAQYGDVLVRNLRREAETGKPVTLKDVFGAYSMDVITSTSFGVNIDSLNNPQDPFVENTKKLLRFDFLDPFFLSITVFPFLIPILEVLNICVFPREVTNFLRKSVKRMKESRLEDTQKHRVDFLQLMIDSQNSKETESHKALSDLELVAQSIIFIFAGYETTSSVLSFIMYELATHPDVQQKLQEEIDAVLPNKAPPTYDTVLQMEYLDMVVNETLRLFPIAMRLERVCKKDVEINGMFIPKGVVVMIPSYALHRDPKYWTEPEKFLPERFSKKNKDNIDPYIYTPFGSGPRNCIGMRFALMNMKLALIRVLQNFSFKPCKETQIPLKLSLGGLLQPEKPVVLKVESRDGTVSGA

[29] = Cytotoxicity against human peripheral blood lymphocytes assessed as assessed as CD4+/CD8+ […] ratio at 5 uM after 5 days by flow cytometry analysis (reference value: 2.7%); format: cell-based; details: lymphocyte, 120 h
[30] = Cytotoxicity against human peripheral blood lymphocytes assessed as assessed as CD3+/CD4+ T cells population at 5 uM after 5 days by flow cytometry analysis (reference value: 41.4%); format: cell-based; details: lymphocyte, 120 h
[31] = Cytotoxicity against human peripheral blood lymphocytes assessed as assessed as CD3+ T cells population at 10 uM after 5 days by flow cytometry analysis (reference value: 73.8%); format: cell-based; details: lymphocyte, 120 h
[32] = Cytotoxicity against human peripheral blood lymphocytes assessed as assessed as CD4+/CD8+ […] ratio at 50 uM after 5 days by flow cytometry analysis (reference value: 2.7%); format: cell-based; details: lymphocyte, 120 h
[33] = Cytotoxicity against human peripheral blood lymphocytes assessed as assessed as CD3+/CD4+ T cells population at 30 uM after 5 days by flow cytometry analysis (reference value: 41.4%); format: cell-based; details: lymphocyte, 120 h
LNCaP = test: Antiproliferative activity against human LNCAP cells assessed as reduction in cell growth after 24 hrs by MTS assay; format: functional, cell-based

## C#C[C@]1(O)CC[C@H]2[C@@H]3CC[C@H]4C[C@H](O)[C@@H](N5CCN(C(=O)[C@@H]6CCCN6C(=O)c6ccc7ccccc7n6)CC5)C[C@]4(C)[C@H]3CC[C@@]21C
[1]
  concentration at 3 h: 151 ng/mL
MCF7
  IC50: 100 nM
[2]
  Activity: 1.6%
[3]
  Activity: 59.1%
[4]
  Activity: 1.8%
[5]
  IC50: 1100 nM
[6]
  Activity: 16.6%
[7]
  Activity: 16.9%
[8]
  Activity: 1.9%
[9]
  Activity: 23.1%
[10]
  Activity: 11.3%
[11]
  Activity: 3.3%
T47D
  IC50: 100 nM
[12]
  Activity: 57.5%
[13]
  Activity: 216%
[14]
  concentration at 12 h: 15.7 ng/mL
[15]
  Activity: 2.2%
[16]
  Activity: 0.1%
Cytochrome P450 2D6
  IC50: 25000 nM
[17]
  Activity: 18.4%
[18]
  Activity: 5%
[19]
  Activity: 62.1%
[20]
  Activity: 1.7%
[21]
  Activity: 3.3%
[22]
  Activity: 1.4%
HL-60
  IC50: 100 nM
[23]
  Activity: 1.4%
[24]
  Activity: 53.7%
[25]
  Activity: 58.5%
[26]
  Activity: 12.1%
[27]
  Activity: 1.1%
[28]
  Activity: 0.1%
Cytochrome P450 3A4
  IC50: 3800 nM
[29]
  Activity: 6%
[30]
  Activity: 19.5%
[31]
  Activity: 55.1%
[32]
  Activity: 231%
[33]
  Activity: 21%
LNCaP
  IC50: 2000 nM
